The source of these data is patent US7723304B2, “Systems for delivery and release of angiotensin-(1-7)” (Universidade Federal De Minas Gerais—UFMG, priority 2001, dated 2010).

Assay [1] deals with G protein-coupled receptor, MAS. Briefly: binding of labeled angiotensin-(1-7) in mouse kidney slices (normal or MAS knockout). The conditions noted are these: MAS knockout mice, 4 °C, autoradiography or fluorescent microscopy. As for the experimental part: (§1) After incubation for variable intervals at 4 °C the slices were exposed to autoradioghraphic films or analysed by flourescent microscopy. […] The functional test for the absence of binding in knockout mice was made using the water diuresis model (administration of 5% of the body weight, of H2O).

Assay [2] concerns the target T1, G protein-coupled receptor, MAS (Mus musculus, UniProt P30554).
T1 construct: from tissue; host or cells: mouse kidney slices (wild type; MAS knockout as control)
T1 sequence (P30554 1-324): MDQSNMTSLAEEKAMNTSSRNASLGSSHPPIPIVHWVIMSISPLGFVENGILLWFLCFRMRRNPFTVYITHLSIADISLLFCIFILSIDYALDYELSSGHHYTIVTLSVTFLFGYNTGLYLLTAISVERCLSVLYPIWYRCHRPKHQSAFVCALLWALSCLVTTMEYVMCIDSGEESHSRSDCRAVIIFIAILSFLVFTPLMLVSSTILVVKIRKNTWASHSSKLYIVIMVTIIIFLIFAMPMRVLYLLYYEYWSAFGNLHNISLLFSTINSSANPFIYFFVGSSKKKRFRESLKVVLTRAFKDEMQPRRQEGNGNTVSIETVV
The assay is described as above. The conditions noted are these: wild type mice. The method, then: as §1

A further assay has as its target ACE (Homo sapiens, UniProt P12821). The conditions noted are these: read-out: IC50 for inhibition of ACE; cited from earlier work.
The test system of assay [3] is G protein-coupled receptor, MAS. The experiment in a line: water diuresis model in wild type and MAS knockout mice. Type of assay: in vivo, mouse. The conditions noted are these: MAS knockout mice, water load 5% of body weight. The method, then:
(§2) Angiotensin-(1-7) labeled with 125I or rhodamine-angiotensin-(1-7), fluorescent, were incubated with mouse kidney slices from normal or MAS knockout animals. After incubation for variable intervals at 4 °C the slices were exposed to autoradioghraphic films or analysed by flourescent microscopy. In the knockout mice the specif binding for angiotensin-(1-7) disappeared while the binding for Ang II or Ang IV, used as controls, was inaltered. The Ang_(1-7) binding in kidney slices of wild type mice was displaced by the analogues D-Ala^7-Angiotensin-(1-7) e D-Pro^7-Angiotensin-(1-7). The functional test for the absence of binding in knockout mice was made using the water diuresis model (administration of 5% of the body weight, of H2O). […] In MAS knockout mice the antidiuretic effect of Ang-(1-7) was absent.

In assay [4] the target is T1, G protein-coupled receptor, MAS. Described as above. Format: in vivo. The conditions noted are these: wild type mice, 4 pmol/10 g BW, water load 5% of body weight. As for the experimental part: as §2
A further assay relates to Wistar rats. The conditions noted are these: free (not encapsulated) peptide, 25-50 ng in the RVLM, previous studies; cited from earlier work.

Sequence of ACE (P12821 30-1306, species assumed): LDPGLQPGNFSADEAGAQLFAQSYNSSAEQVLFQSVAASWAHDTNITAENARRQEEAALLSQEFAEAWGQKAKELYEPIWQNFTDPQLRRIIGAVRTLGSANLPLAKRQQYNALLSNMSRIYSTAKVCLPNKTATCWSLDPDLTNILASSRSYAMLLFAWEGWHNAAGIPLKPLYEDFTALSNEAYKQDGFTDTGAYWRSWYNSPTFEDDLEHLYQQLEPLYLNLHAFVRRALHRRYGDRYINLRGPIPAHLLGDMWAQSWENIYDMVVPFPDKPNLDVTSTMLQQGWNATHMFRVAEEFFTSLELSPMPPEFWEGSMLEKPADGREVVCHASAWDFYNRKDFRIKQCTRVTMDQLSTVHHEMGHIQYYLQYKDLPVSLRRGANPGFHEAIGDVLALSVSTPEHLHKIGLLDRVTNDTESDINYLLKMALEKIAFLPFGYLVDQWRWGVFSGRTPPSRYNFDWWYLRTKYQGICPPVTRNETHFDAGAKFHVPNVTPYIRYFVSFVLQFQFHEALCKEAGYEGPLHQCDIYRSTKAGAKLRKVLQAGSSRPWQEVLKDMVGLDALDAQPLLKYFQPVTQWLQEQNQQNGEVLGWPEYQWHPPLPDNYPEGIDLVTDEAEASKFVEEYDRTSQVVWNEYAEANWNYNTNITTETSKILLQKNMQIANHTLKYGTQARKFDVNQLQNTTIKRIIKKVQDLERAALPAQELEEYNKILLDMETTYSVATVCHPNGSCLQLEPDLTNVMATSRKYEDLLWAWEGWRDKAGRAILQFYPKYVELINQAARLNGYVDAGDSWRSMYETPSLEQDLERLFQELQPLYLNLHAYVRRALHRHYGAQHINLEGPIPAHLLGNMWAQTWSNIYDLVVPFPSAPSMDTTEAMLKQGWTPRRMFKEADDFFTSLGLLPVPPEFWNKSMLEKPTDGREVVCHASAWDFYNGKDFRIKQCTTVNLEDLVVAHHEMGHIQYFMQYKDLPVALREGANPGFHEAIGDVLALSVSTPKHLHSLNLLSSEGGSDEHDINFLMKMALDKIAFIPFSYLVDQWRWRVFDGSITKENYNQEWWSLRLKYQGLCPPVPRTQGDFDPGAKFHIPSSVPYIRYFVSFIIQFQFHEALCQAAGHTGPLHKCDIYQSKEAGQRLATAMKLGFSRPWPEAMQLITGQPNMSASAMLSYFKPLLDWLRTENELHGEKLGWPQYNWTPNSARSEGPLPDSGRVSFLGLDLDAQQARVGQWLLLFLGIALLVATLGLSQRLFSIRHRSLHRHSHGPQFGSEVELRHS

For `CC[C@H](C)[C@H](NC(=O)[C@H](Cc1ccc(O)cc1)NC(=O)[C@@H](N)C(C)C)C(=O)N[C@@H](Cc1cnc[nH]1)C(=O)N1CCC[C@H]1C(=O)N[C@@H](Cc1ccccc1)C(=O)O` [Ang IV], the “binding in kidney slices of MAS knockout mice” value (“binding … of MAS knockout mice” for short) in assay [1] is recorded as “inaltered”.

Consider “Ang II: main peptide of RAS, used as binding control (DRVYIHPF; Angiotensin-2; UniProt P01019 25-32, looked up)”, for which the “binding … of MAS knockout mice” value in assay [1] is recorded as “inaltered”.

With “D-Pro7-Ang-(1-7) [D-Pro^7-Angiotensin-(1-7)]”, in assay [2], the “displacement of Ang-(1-7) binding in kidney slices” value was “displaced”.

Regarding “D-[Ala^7]-Ang-(1-7) [D-Ala^7-Angiotensin-(1-7)]”, in assay [2], the “displacement of Ang-(1-7) binding in kidney slices” value is given as “displaced”.

Broadly, the IC50 is the concentration that gives 50% inhibition. Regarding “DRVYIHP [Ang-(1-7), Asp-Arg-Val-Tyr-Ile-His-Pro]”, the IC50 at ACE was about 1000 nM. Also, the antidiuretic effect entry in assay [3] is given as “absent”. Further, the “urine volume (antidiuresis)” value in assay [4] is listed as “reduction of the urine volume”. In addition, in the assay on Wistar rats, the “duration of increase of PAM” value is given as “approximately 10 min” and the “increase of PAM” value is listed as 15 mmHg. In assay [1], the “binding … of MAS knockout mice” value is given as “disappeared”.
